Measured values as given in PubChem BioAssay AID1259411 (Chemical Carcinogenesis Research Information System (CCRIS), 2018).
Calls of active or inactive are those of the source. No rule for the calls is given here.

Tested on: rodent carcinogenicity bioassays, tumor incidence
Assay: CCRIS carcinogenicity studies
Outline: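 NCI-built, expert-reviewed records of carcinogenicity and related test outcomes (mutagenicity, tumor promotion/inhibition) compiled from published and report sources, historical span 1985-2011, not updated.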

`C#C[C@]1(O)CC[C@H]2[C@@H]3CCc4cc(O)ccc4[C@H]3CC[C@@]21C` was tested, and the carcinogen call (Species: MOUSE, Route: ORAL, Tumor Site: Type of Lesion: CERVIX, MAMMARY GLAND, PITUITARY GLAND, UTERUS, Tumor Site: Type of Lesion: CERVIX, MAMMARY GLAND, PITUITARY GLAND, UTERUS) was “active; positive”, the carcinogen call (Species: MOUSE, Strain/Sex: CD-1/FEMALE, Route: SUBCUTANEOUS, Dose: 0, 2 UG/D IN CORN OIL ON DAYS 1-5 OF LIFE (STUDY DURATION: 12-18 WK), Tumor Site: Type of Lesion: UTERUS: ADENOCARCINOMA) was “active; positive” and the carcinogen call (Species: RAT, Route: ORAL, SUBCUTANEOUS, Tumor Site: Type of Lesion: LIVER) was “active; positive”. For the same compound, the carcinogen call (Species: Rat, Strain/Sex: Sprague-Dawley/Female (50/Group), Route: Oral, Dose: 0, 2, 10, 50 ppb in diet, continuous exposure from conception through 2 yr, Dose: 0, 2, 10) was “inactive; negative”, the carcinogen call (Species: Rat, Strain/Sex: Sprague-Dawley/Female (50/Group), Route: Oral, Dose: 0, 2, 10, 50 ppb in diet, continuous exposure from conception through PND 140, followed by control diet to 2 yr, Dose: 0, 2, 10) was “inactive; negative (authors describe as equivocal evidence based on stromal polyp (2/51, 5” and the carcinogen call (Species: Rat, Strain/Sex: Sprague-Dawley/Male (50/Group), Route: Oral, Dose: 0, 2, 10, 50 ppb in diet, continuous exposure from conception through 2 yr, Dose: 0, 2, 10) was “inactive; negative”. For the same compound, the carcinogen call (Species: Rat, Strain/Sex: Sprague-Dawley/Male (50/Group), Route: Oral, Dose: 0, 2, 10, 50 ppb in diet, continuous exposure from conception through PND 140, followed by control diet to 2 yr, Dose: 0, 2, 10) was “inactive; negative”.
With `CCOP(=S)(OCC)SC1OCCOC1SP(=S)(OCC)OCC` (stereo not given) the carcinogen call (Species: MOUSE, Strain/Sex: B6C3F1/FEMALE, Route: ORAL, Dose: 0, 467, 935 PPM IN DIET, TWA, Dose: 0, 467, 935 PPM IN DIET, TWA) was “inactive; negative”, the carcinogen call (Species: MOUSE, Strain/Sex: B6C3F1/MALE, Route: ORAL, Dose: 0, 284, 567 PPM IN DIET, TWA, Dose: 0, 284, 567 PPM IN DIET, TWA) was “inactive; negative” and the carcinogen call (Species: RAT, Strain/Sex: OSBORNE-MENDEL/FEMALE, Route: ORAL, Dose: 0, 45, 90 PPM IN DIET, TWA, Dose: 0, 45, 90 PPM IN DIET, TWA) was “inactive; negative”. For the same compound, the carcinogen call (Species: RAT, Strain/Sex: OSBORNE-MENDEL/MALE, Route: ORAL, Dose: 0, 90, 180 PPM IN DIET, TWA, Dose: 0, 90, 180 PPM IN DIET, TWA) was “inactive; negative”.
With `ClCc1ccccc1` the carcinogen call (Species: MOUSE, Strain/Sex: B6C3F1/FEMALE, Route: ORAL (GAVAGE), Dose: 0, 50, 100 MG/KG BW 3 X A WK FOR 2 YRS (TEST MATERIAL SOLVENT: CORN OIL), Dose: 0, 50, 100 MG/KG BW 3 X A WK FOR 2 YRS (TEST MATERIAL SOLVENT: CORN OIL), Tumor Site: Type of Lesion: FORESTOMACH: CARCINOMA AND PAPILLOMA, LUNG: ALVEOLAR-BRONCHIOLAR ADENOMA OR CARCINOMA (HIGH DOSE ONLY, P=0.053)) was “active; positive”, the carcinogen call (Species: MOUSE, Strain/Sex: B6C3F1/MALE, Route: ORAL (GAVAGE), Dose: 0, 50, 100 MG/KG BW 3 X A WK FOR 2 YRS (TEST MATERIAL SOLVENT: CORN OIL), Dose: 0, 50, 100 MG/KG BW 3 X A WK FOR 2 YRS (TEST MATERIAL SOLVENT: CORN OIL), Tumor Site: Type of Lesion: FORESTOMACH: CARCINOMA AND PAPILLOMA, LIVER: CARCINOMA OR ADENOMA (LOWER DOSE ONLY), CIRCULATORY SYSTEM: HEMANGIOMA OR H, Tumor Site: Type of Lesion: FORESTOMACH: CARCINOMA AND PAPILLOMA, LIVER: CARCINOMA OR ADENOMA (LOWER DOSE ONLY), CIRCULATORY SYSTEM: HEMANGIOMA OR H) was “active; positive” and the carcinogen call (Species: RAT, Route: SUBCUTANEOUS, Tumor Site: Type of Lesion: INJECTION SITE) was “active; positive”. For the same compound, the carcinogen call (Species: RAT, Strain/Sex: F344/FEMALE, Route: ORAL (GAVAGE), Dose: 0, 15, 30 MG/KG BW 3 X A WK FOR 2 YRS (TEST MATERIAL SOLVENT: CORN OIL), Dose: 0, 15, 30 MG/KG BW 3 X A WK FOR 2 YRS (TEST MATERIAL SOLVENT: CORN OIL), Tumor Site: Type of Lesion: THYROID: C-CELL NEOPLASMS) was “active; positive” and the carcinogen call (Species: RAT, Strain/Sex: F344/MALE, Route: ORAL (GAVAGE), Dose: 0, 15, 30 MG/KG BW 3 X A WK FOR 2 YRS (TEST MATERIAL SOLVENT: CORN OIL), Dose: 0, 15, 30 MG/KG BW 3 X A WK FOR 2 YRS (TEST MATERIAL SOLVENT: CORN OIL)) was “inactive; negative”.
With `Nc1cc(S(=O)(=O)[O-])cc2c1C(=O)/C(=N\Nc1ccc(-c3ccc(N/N=C4\C(=O)c5c(N)cc(S(=O)(=O)[O-])cc5C=C4S(=O)(=O)[O-])c(O)c3)cc1O)C(S(=O)(=O)[O-])=C2.[Cu].[Cu].[Na+].[Na+].[Na+].[Na+]` the carcinogen call (Species: MOUSE, Strain/Sex: B6C3F1/FEMALE, Route: ORAL, Dose: 0, 1000, 3000, 10000 PPM IN DIET FOR 103 WK (STUDY DURATION: 106 WK), Dose: 0, 1000, 3000, 10000 PPM IN DIET FOR 103 WK (STUDY DURATION: 106 WK), Tumor Site: Type of Lesion: LIVER: HEPATOCELLULAR ADENOMA, HEPATOCELLULAR CARCINOMA) was “active; positive”, the carcinogen call (Species: MOUSE, Strain/Sex: B6C3F1/MALE, Route: ORAL, Dose: 0, 1000, 3000, 10000 PPM IN DIET FOR 103 WK (STUDY DURATION: 106 WK), Dose: 0, 1000, 3000, 10000 PPM IN DIET FOR 103 WK (STUDY DURATION: 106 WK), Tumor Site: Type of Lesion: LIVER: HEPATOCELLULAR ADENOMA, HEPATOCELLULAR CARCINOMA) was “active; positive” and the carcinogen call (Species: RAT, Strain/Sex: F344/FEMALE, Route: ORAL, Dose: 0, 1000, 3000, 10000 PPM IN DIET FOR 103 WK (STUDY DURATION: 105 WK), Dose: 0, 1000, 3000, 10000 PPM IN DIET FOR 103 WK (STUDY DURATION: 105 WK)) was “inactive; negative”. For the same compound, the carcinogen call (Species: RAT, Strain/Sex: F344/MALE, Route: ORAL, Dose: 0, 1000, 3000, 10000 PPM IN DIET FOR 103 WK (STUDY DURATION: 105 WK), Dose: 0, 1000, 3000, 10000 PPM IN DIET FOR 103 WK (STUDY DURATION: 105 WK), Tumor Site: Type of Lesion: PHARYNX: SQUAMOUS CELL PAPILLOMA OR SQUAMOUS CELL CARCINOMA) was “active; positive”.
For `CCOC(=O)NO`, the carcinogen call (Species: MOUSE, Strain/Sex: C57BL, Route: INTRAPERITONEAL, Dose: 1.18 MG/G 10X AT WEEKLY INTERVALS, Tumor Site: Type of Lesion: THYMUS GLAND: LYMPHOSARCOMA, LUNG: ADENOMA) was “active; positive” and the carcinogen call (Species: MOUSE, Strain/Sex: STRAIN-A/FEMALE, Route: INTRAPERITONEAL, Dose: 4000 NMOL/G, Tumor Site: Type of Lesion: LUNG: ADENOMA) was “active; positive”.
`O=C1C2(Cl)C3(Cl)C4(Cl)C(Cl)(Cl)C5(Cl)C3(Cl)C1(Cl)C5(Cl)C24Cl` (stereo not given) was tested, and the carcinogen call (Species: MOUSE, Strain/Sex: B6C3F1/FEMALE, Route: ORAL, Dose: 20, 40 MG/KG IN DIET, TWA, Tumor Site: Type of Lesion: LIVER: HEPATOCELLULAR CARCINOMA) was “active; positive”, the carcinogen call (Species: MOUSE, Strain/Sex: B6C3F1/MALE, Route: ORAL, Dose: 20, 23 MG/KG IN DIET, TWA, Tumor Site: Type of Lesion: LIVER: HEPATOCELLULAR CARCINOMA) was “active; positive” and the carcinogen call (Species: RAT, Strain/Sex: OSBORNE-MENDEL/FEMALE, Route: ORAL, Dose: 18, 26 MG/KG IN DIET, TWA, Tumor Site: Type of Lesion: LIVER: HEPATOCELLULAR CARCINOMA) was “active; positive”. The carcinogen call (Species: RAT, Strain/Sex: OSBORNE-MENDEL/MALE, Route: ORAL, Dose: 8, 24 MG/KG IN DIET, TWA, Tumor Site: Type of Lesion: LIVER: HEPATOCELLULAR CARCINOMA) was “active; positive”.
For `C=C(C)CN(CC)c1c([N+](=O)[O-])cc(C(F)(F)F)cc1[N+](=O)[O-]`, the carcinogen call (Species: Mouse, Strain/Sex: B6C3F1/Female (40/Experimental group; 60/Control group), Route: Oral, Dose: 0, 100, 400, 1500 ppm of 94.5% ethalfluralin in diet for 2 yr, study duration 2 yr (2 replicate studies)., Dose: 0, 100, 400, 1500 ppm of 94.5% ethalfluralin in diet for 2 yr, study duration 2 yr (2 replicate studies).) was “inactive; negative”, the carcinogen call (Species: Mouse, Strain/Sex: B6C3F1/Male (40/Experimental group; 60/Control group), Route: Oral, Dose: 0, 100, 400, 1500 ppm of 94.5% ethalfluralin in diet for 2 yr, study duration 2 yr (2 replicate studies)., Dose: 0, 100, 400, 1500 ppm of 94.5% ethalfluralin in diet for 2 yr, study duration 2 yr (2 replicate studies).) was “inactive; negative” and the carcinogen call (Species: Rat, Strain/Sex: Fischer 344/Female (30/Group; replicate studies using 94.5% ethalfluralin), Route: Oral, Dose: 0, 0.01, 0.025, 0.075% (0; 4.2; 10.7; 32.3 mg/kg/d) in diet for 2 yr, study duration 2 yr, Dose: 0, 0.01, 0.025, 0.075% (0; 4.2; 10.7; 32.3 mg/kg/d) in diet for 2 yr, study duration 2 yr, Tumor Site: Type of Lesion: Mammary gland: Benign fibroadenomas) was “active; positive”. The carcinogen call (Species: Rat, Strain/Sex: Fischer 344/Male (30/Group; replicate studies using 94.5% ethalfluralin), Route: Oral, Dose: 0, 0.01, 0.025, 0.075% (0; 4.2; 10.7; 32.3 mg/kg/d) in diet for 2 yr, study duration 2 yr, Dose: 0, 0.01, 0.025, 0.075% (0; 4.2; 10.7; 32.3 mg/kg/d) in diet for 2 yr, study duration 2 yr) was “inactive; negative”.
